Test results taken from patent US5599974A, “Aldehydic agents for allosteric modification of hemoglobin” (Center for Innovative Technology, priority 1994, dated 1997).

Legend:
[1] = target: T1, human hemoglobin (HbA) (Homo sapiens, UniProt P69905); assay: Oxygen equilibrium studies of hemoglobin solutions (Hem-O-Scan oxygen dissociation curves); format: biochemical; settings: hemoglobin solution
T1 construct: hemoglobin solution
Excerpt: In blood, hemoglobin is in equilibrium between two allosteric structures. In the "T" (for tense) state, hemoglobin is de-oxygenated. In the "R" (for relaxed) state, hemoglobin is oxygenated. An oxygen equilibrium curve can be scanned using well known equipment such as the Aminco™ Hem-o-scan to evaluate the affinity and degree of cooperativity (allosteric action) of hemoglobin. In the scan, the Y-axis plots the percent of hemoglobin oxygenation and the X-axis plots the partial pressure of oxygen in millimeters of mercury (mm Hg). If a horizontal line is drawn from the 50% oxygen saturation point to the scanned curve and a vertical line is drawn from the intersection point of the horizontal line with the curve to the partial pressure X-axis, a value commonly known as the P50 is determined. This is the pressure when the hemoglobin is 50% saturated with oxygen. By comparing the P50 value for treated hemoglobin to the P50 value for untreated normal adult human hemoglobin (HbA) under physiological conditions (i.e., 37° C., pH=7.4, and partial carbon dioxide pressure of 40 mm Hg), the degree of allosteric modification can be determined. When the P50 value for treated hemoglobin is lower than for HbA, a high oxygen affinity hemoglobin is indicated and the curve is said to be "left-shifted". Conversely, when the P50 value for treated hemoglobin is higher than for HbA, a low oxygen affinity hemoglobin is indicated and the curve is said to be "right-shifted".
In the oxygen equilibrium studies, the HbA was further purified by dialysis against pH 8.6. Tris buffer (50 mM, containing 40 mg EDTA/L) to remove any residual A2 hemoglobin. The pure HbA fraction was concentrated by using a Schleicher and Schuell colloidion bag apparatus, available from Schleicher and Schuell, Inc., with HEPES buffer (50 mM, pH 7.4) as the exchange buffer. The Hb concentration was determined by using the cyanmet method. The Hb concentration at this point was usually found to be around 35 g% (approximately 5.4 mM). Less than 5% methemoglobin was noted even after several days at 4° C. Oxygen dissociation curves were recorded on an AMINCO Hem-0-Scan oxygen dissociation analyzer available from Travenol Laboratories.
All compounds were dissolved in 50 mM HEPES buffer, pH 7.4, to give 20 mM of drug solution. The Hb (5.4 mM, in HEPES, pH 7.4) and the test compounds (20 mM) were mixed in 1:1 volume ratio (50μL of Hb+50μL of compound solution) to give final concentrations of 2.7 mM and 10mM, respectively (a molar ratio of test compound to hemoglobin of approximately 4:1). A control experiment was prepared by the addition of 50 μL of Hb to 50 μL of HEPES buffer. The mixtures were incubated at 4° C. for two hours before running the oxygen dissociation curves.

[2] = system: whole blood; assay: Whole-blood studies: effect on the oxygen affinity of whole blood; format: cell-based
[3] = target: T2, HbA (Homo sapiens, UniProt P69905); assay: X-ray diffraction analysis of HbA/drug complexes (difference electron-density maps); format: binding; settings: HbA tetramer/drug molar ratio 1:5 (TB17 1:10), Schiff base reduced, deoxygenated crystals
T2 construct: co-crystals with compounds
Protocol: Reaction of the drug compounds with HbA, crystallization and X-ray data collection of the HbA/drug complexes were performed according to the procedures of Wireko et al., Proc. Natl. Acad. Sci. USA, 1991, 88, 2209, which is herein incorporated by reference, with some slight modifications. Freshly prepared solutions of the synthesized compounds in potassium phosphate buffer were incubated at oxy HbA tetramer/drug molar ratios of 1:5 or 1:10 for at least 24 hours. Sodium cyanoborohydrie in phosphate buffer was added in 10- to 50-fold molar excess of HbA tetramer to reduce the Schiff's base adduct for at least 24 hours. The deoxygenated HbA/compound complexes were set up for crystallizations following the procedures described in Perutz et al., Crys. Growth, 1968, 2, 54, which is herein incorporated by reference, with some slight modifications. X-ray quality crystals for all complexes were obtained after three to seven days. Crystals of TB19 (discussed below) grown with HbA incubated and reduced under deoxygenated conditions was also used for data collection.
X-ray diffraction data for the MS2 complex (discussed below) was collected using a Rigaku AFC5R rotating anode diffractometer to a resolution of 4Å. All hk±1 reflections and their Friedel pairs were collected. One crystal, dimensions 0.3 to 1.2 mm was used for collection. Diffraction data for the rest of the complexes were collected with a Rigaku AFC5R rotating anode diffractometer equipped with an R-axis IIC image plate system, all to a resolution of 1.94A. Crystals of linear dimensions 0.2 to 0.5 mm were used. Data reduction, structure solution and calculation of Fourier difference electron-density maps were as described in Wireko et al., Proc. Natl. Acad. Sci. USA, 1991, 88, 2209.
Models of the compounds created with MMOD and minimized with MM2 force field were fitted to the electron-density by using FRODO on an EVANS and SUTHERLAND PS390 graphic station.
X-ray diffraction analyses were used to study several of the new drug complexes including MS1, MS2, TB8, TB10, TB17, TB19, TB32, TB36, TB62, and TB63. The difference electron-density maps of all complexes discussed are that of the HbA tetramer/drug molar ratio of 1:5, except TB17 which is 1:10. All drug molecules contain at least two functionalities, an aldehyde and a carboxylate, common to all of them. […] The only exception was MS2 where only one of the carboxylate oxygens was involved in the salt bridge interaction. The above binding site, which is common to all of the complexes, will be referred to as the α-cleft binding site. Some of the above drug compounds have additional functional groups which are also involved in additional interaction with other HbA residues, including hydrogen bonding, van der Waals interaction, and a second covalent bonding.
All complexes have two molecules of the drug compounds bound at the above-mentioned α-cleft site and are related by the two fold noncrystallographic axis. These sites are further noted as the α1-cleft site (Val-1α1 binding site), and the α2-cleft site (Val-1α2 binding site). In all complexes, the electron density at the α2-cleft site were slightly bigger and better defined than the electron density at the α1-cleft site. In addition to the binding at the α-cleft site, some of the drug compounds also bind to other secondary sites, including other sites in the α-cleft water cavity, the β-cleft water cavity located at Val-1β, and the Hb polymer contact site located near the residues His-116β and His-117β.

## O=Cc1ccc(OCCCCOc2ccc(C=O)cc2C(=O)O)c(C(=O)O)c1 [TB19, 1,4-Bis(2-carboxy-4-formylphenoxy)-butane]
[1]
  direction of shift of the oxygen equilibrium curve: right shift
[1]; Hb 2.7 mM, compound 10 mM (approx. 4:1), 50 mM HEPES pH 7.4, incubated at 4° C. for two hours
  P50 D (aver.): 42.0 mm Hg
[1]; Hb 2.7 mM, compound 10 mM, 50 mM HEPES pH 7.4, positive = right shift
  ΔP50 (P50 D - P50 C): 20.0 mm Hg
[2]; heparinized whole blood mixed 1:1 with test compound solution, equilibrated 1 hour at 37° C., P50 C 25.0
  P50 D (aver.): 19.5 mm Hg
[2]; whole blood
  direction of shift of the oxygen equilibrium curve: left shift
[2]; whole blood, 1 hour at 37° C., P50 D - P50 C
  ΔP50 D: -5.5 mm Hg
[3]
  binding sites in HbA seen in the difference electron-density map: binding exclusively at the two symmetry-relatedα-cleft sites
